Columns and labels:
[1] = Toxicity in Artemia salina by brine shrimp lethality assay; details: in vivo
[2] = Toxicity in mouse assessed as induction of mortality; details: in vivo

O=C1C[C@@H]2OCC=C3CN4CC[C@]56c7ccccc7N1[C@H]5[C@H]2[C@H]3C[C@H]46.O=S(=O)(O)O
LC50 [1]: 200 µM
LD50 [2]: < 2 mg/kg
